Legend:
[1] = Active ingredient assay on storage, SCB239-12 (Table 3); assay type: physicochemical
[2] = Active ingredient assay and recovery on storage (Table 2); assay type: physicochemical

SMILES: CCCCCCCC(=O)Oc1c(Br)cc(C#N)cc1Br [Bromoxynil, Bromoxynil Octanoate]
- Assay (% w/w) ([1]; 1 month storage, 0° C.): 31.08 % w/w
- Recovery of active ingredient (% of initial assay) ([1]; 1 month storage, 0° C.): 99.56 % w/w
- Assay (% w/w) ([1]; 1 month storage, 40° C.): 30.65 % w/w
- Recovery of active ingredient (% of initial assay) ([1]; 1 month storage, 40° C.): 98.17 % w/w
- Assay (% w/w) ([1]; 1 month storage, T/C): 30.89 % w/w
- Recovery of active ingredient (% of initial assay) ([1]; 1 month storage, T/C): 98.95 % w/w
- Assay (% w/w) ([1]; 2 month storage, 0° C.): 30.30 % w/w
- Recovery of active ingredient (% of initial assay) ([1]; 2 month storage, 0° C.): 97.06 % w/w
- Assay (% w/w) ([1]; 2 month storage, 40° C.): 29.43 % w/w
- Recovery of active ingredient (% of initial assay) ([1]; 2 month storage, 40° C.): 94.28 % w/w
- Assay (% w/w) ([1]; 2 month storage, T/C): 29.88 % w/w
- Recovery of active ingredient (% of initial assay) ([1]; 2 month storage, T/C): 95.73 % w/w
- Assay (% w/w) ([1]; 2 wks, 54° C.): 30.55 % w/w
- Recovery of active ingredient (% of initial assay) ([1]; 2 wks, 54° C.): 97.86 % w/w
- Assay (% w/w) ([1]; 3 month storage, 0° C.): 30.06 % w/w
- Recovery of active ingredient (% of initial assay) ([1]; 3 month storage, 0° C.): 96.31 % w/w
- Assay (% w/w) ([1]; 3 month storage, 25° C.): 30.03 % w/w
- Recovery of active ingredient (% of initial assay) ([1]; 3 month storage, 25° C.): 96.21 % w/w
- Assay (% w/w) ([1]; 3 month storage, 40° C.): 29.37 % w/w
- Recovery of active ingredient (% of initial assay) ([1]; 3 month storage, 40° C.): 94.07 % w/w
- Assay (% w/w) ([1]; 3 month storage, −10° C.): 30.49 % w/w
- Recovery of active ingredient (% of initial assay) ([1]; 3 month storage, −10° C.): 97.68 % w/w
- Assay (% w/w) ([1]; F/T sample): 31.13 % w/w
- Recovery of active ingredient (% of initial assay) ([1]; F/T sample): 99.73 % w/w
- Assay (% w/w) ([1]; Initial): 31.22 % w/w
- Assay (% w/w) ([2]; 1 month storage, 0° C.): 31.04 % w/w
- Assay (% w/w) ([2]; 1 month storage, 40° C.): 31.46 % w/w
- Assay (% w/w) ([2]; 1 month storage, T/C): 31.27 % w/w
- Assay (% w/w) ([2]; 1 month storage, −10° C.): 31.44 % w/w
- Assay (% w/w) ([2]; 2 month storage, 0° C.): 31.30 % w/w
- Assay (% w/w) ([2]; 2 month storage, 40° C.): 30.78 % w/w
- Assay (% w/w) ([2]; 2 month storage, T/C): 30.99 % w/w
- Assay (% w/w) ([2]; 2 month storage, −10° C.): 31.34 % w/w
- Assay (% w/w) ([2]; 2 wks, 54° C.): 31.02 % w/w
- Assay (% w/w) ([2]; 3 month storage, 0° C.): 32.81 % w/w
- Assay (% w/w) ([2]; 3 month storage, 25° C.): 32.57 % w/w
- Assay (% w/w) ([2]; 3 month storage, 40° C.): 32.17 % w/w
- Assay (% w/w) ([2]; 3 month storage, T/C): 32.54 % w/w
- Assay (% w/w) ([2]; 3 month storage, −10° C.): 33.06 % w/w
- Assay (% w/w) ([2]; 6 month storage, 25° C.): 31.38 % w/w
- Assay (% w/w) ([2]; 9 month storage, 25° C.): 32.11 % w/w
- Assay (% w/w) ([2]; 12 month storage, 25° C.): 31.19 % w/w
- Assay (% w/w) ([2]; F/T Sample): 31.42 % w/w
- Assay (% w/w) ([2]; initial): 31.32 % w/w

SMILES: COc1nn(C(=O)[N-]S(=O)(=O)c2ccccc2OC(F)(F)F)c(=O)n1C.[Na+] [Flucarbazone, Flucarbazone Sodium]
- Assay (% w/w) ([1]; 1 month storage, 0° C.): 1.81 % w/w
- Recovery of active ingredient (% of initial assay) ([1]; 1 month storage, 0° C.): 99.67 % w/w
- Assay (% w/w) ([1]; 1 month storage, 40° C.): 1.85 % w/w
- Recovery of active ingredient (% of initial assay) ([1]; 1 month storage, 40° C.): 101.98 % w/w
- Assay (% w/w) ([1]; 1 month storage, T/C): 1.83 % w/w
- Recovery of active ingredient (% of initial assay) ([1]; 1 month storage, T/C): 101.13 % w/w
- Assay (% w/w) ([1]; 2 month storage, 0° C.): ′1.81 % w/w
- Recovery of active ingredient (% of initial assay) ([1]; 2 month storage, 0° C.): 99.76 % w/w
- Assay (% w/w) ([1]; 2 month storage, 40° C.): 1.80 % w/w
- Recovery of active ingredient (% of initial assay) ([1]; 2 month storage, 40° C.): 99.54 % w/w
- Assay (% w/w) ([1]; 2 month storage, T/C): 1.82 % w/w
- Recovery of active ingredient (% of initial assay) ([1]; 2 month storage, T/C): 100.35 % w/w
- Assay (% w/w) ([1]; 2 wks, 54° C.): 1.68 % w/w
- Recovery of active ingredient (% of initial assay) ([1]; 2 wks, 54° C.): 92.84 % w/w
- Assay (% w/w) ([1]; 3 month storage, 0° C.): 1.80 % w/w
- Recovery of active ingredient (% of initial assay) ([1]; 3 month storage, 0° C.): 99.13 % w/w
- Assay (% w/w) ([1]; 3 month storage, 25° C.): 1.79 % w/w
- Recovery of active ingredient (% of initial assay) ([1]; 3 month storage, 25° C.): 98.51 % w/w
- Assay (% w/w) ([1]; 3 month storage, 40° C.): 1.72 % w/w
- Recovery of active ingredient (% of initial assay) ([1]; 3 month storage, 40° C.): 95.13 % w/w
- Assay (% w/w) ([1]; 3 month storage, −10° C.): 1.78 % w/w
- Recovery of active ingredient (% of initial assay) ([1]; 3 month storage, −10° C.): 98.44 % w/w
- Assay (% w/w) ([1]; F/T sample): 1.80 % w/w
- Recovery of active ingredient (% of initial assay) ([1]; F/T sample): 99.26 % w/w
- Assay (% w/w) ([1]; Initial): 1.81 % w/w
- Assay (% w/w) ([2]; 1 month storage, 0° C.): 1.89 % w/w
- Assay (% w/w) ([2]; 1 month storage, 40° C.): 1.90 % w/w
- Assay (% w/w) ([2]; 1 month storage, T/C): 1.90 % w/w
- Assay (% w/w) ([2]; 1 month storage, −10° C.): 1.90 % w/w
- Assay (% w/w) ([2]; 2 month storage, 0° C.): 1.93 % w/w
- Assay (% w/w) ([2]; 2 month storage, 40° C.): 1.91 % w/w
- Assay (% w/w) ([2]; 2 month storage, T/C): 1.93 % w/w
- Assay (% w/w) ([2]; 2 month storage, −10° C.): 1.93 % w/w
- Assay (% w/w) ([2]; 2 wks, 54° C.): 1.90 % w/w
- Assay (% w/w) ([2]; 3 month storage, 0° C.): 1.98 % w/w
- Assay (% w/w) ([2]; 3 month storage, 25° C.): 1.99 % w/w
- Assay (% w/w) ([2]; 3 month storage, 40° C.): 1.94 % w/w
- Assay (% w/w) ([2]; 3 month storage, T/C): 1.98 % w/w
- Assay (% w/w) ([2]; 3 month storage, −10° C.): 1.99 % w/w
- Assay (% w/w) ([2]; 6 month storage, 25° C.): 1.92 % w/w
- Assay (% w/w) ([2]; 9 month storage, 25° C.): 1.92 % w/w
- Assay (% w/w) ([2]; 12 month storage, 25° C.): 1.92 % w/w
- Assay (% w/w) ([2]; F/T Sample): 1.92 % w/w
- Assay (% w/w) ([2]; initial): 1.91 % w/w

SMILES: CCCCCCC(C)OC(=O)COc1nc(F)c(Cl)c(N)c1Cl (stereo not drawn) [Fluroxypyr, Fluroxypyr Meptyl]
- Assay (% w/w) ([1]; 1 month storage, 0° C.): 11.25 % w/w
- Recovery of active ingredient (% of initial assay) ([1]; 1 month storage, 0° C.): 99.37 % w/w
- Assay (% w/w) ([1]; 1 month storage, 40° C.): 11.24 % w/w
- Recovery of active ingredient (% of initial assay) ([1]; 1 month storage, 40° C.): 99.33 % w/w
- Assay (% w/w) ([1]; 1 month storage, T/C): 11.25 % w/w
- Recovery of active ingredient (% of initial assay) ([1]; 1 month storage, T/C): 99.36 % w/w
- Assay (% w/w) ([1]; 2 month storage, 0° C.): 11.19 % w/w
- Recovery of active ingredient (% of initial assay) ([1]; 2 month storage, 0° C.): 98.83 % w/w
- Assay (% w/w) ([1]; 2 month storage, 40° C.): 11.13 % w/w
- Recovery of active ingredient (% of initial assay) ([1]; 2 month storage, 40° C.): 98.36 % w/w
- Assay (% w/w) ([1]; 2 month storage, T/C): 11.17 % w/w
- Recovery of active ingredient (% of initial assay) ([1]; 2 month storage, T/C): 98.68 % w/w
- Assay (% w/w) ([1]; 2 wks, 54° C.): 11.26 % w/w
- Recovery of active ingredient (% of initial assay) ([1]; 2 wks, 54° C.): 99.48 % w/w
- Assay (% w/w) ([1]; 3 month storage, 0° C.): 11.23 % w/w
- Recovery of active ingredient (% of initial assay) ([1]; 3 month storage, 0° C.): 99.21 % w/w
- Assay (% w/w) ([1]; 3 month storage, 25° C.): 11.20 % w/w
- Recovery of active ingredient (% of initial assay) ([1]; 3 month storage, 25° C.): 98.92 % w/w
- Assay (% w/w) ([1]; 3 month storage, 40° C.): 11.21 % w/w
- Recovery of active ingredient (% of initial assay) ([1]; 3 month storage, 40° C.): 99.04 % w/w
- Assay (% w/w) ([1]; 3 month storage, −10° C.): 11.13 % w/w
- Recovery of active ingredient (% of initial assay) ([1]; 3 month storage, −10° C.): 98.30 % w/w
- Assay (% w/w) ([1]; F/T sample): 11.28 % w/w
- Recovery of active ingredient (% of initial assay) ([1]; F/T sample): 99.68 % w/w
- Assay (% w/w) ([1]; Initial): 11.32 % w/w
- Assay (% w/w) ([2]; 1 month storage, 0° C.): 11.47 % w/w
- Assay (% w/w) ([2]; 1 month storage, 40° C.): 11.50 % w/w
- Assay (% w/w) ([2]; 1 month storage, T/C): 11.52 % w/w
- Assay (% w/w) ([2]; 1 month storage, −10° C.): 11.49 % w/w
- Assay (% w/w) ([2]; 2 month storage, 0° C.): 11.56 % w/w
- Assay (% w/w) ([2]; 2 month storage, 40° C.): 11.56 % w/w
- Assay (% w/w) ([2]; 2 month storage, T/C): 11.55 % w/w
- Assay (% w/w) ([2]; 2 month storage, −10° C.): 11.55 % w/w
- Assay (% w/w) ([2]; 2 wks, 54° C.): 11.63 % w/w
- Assay (% w/w) ([2]; 3 month storage, 0° C.): 11.63 % w/w
- Assay (% w/w) ([2]; 3 month storage, 25° C.): 11.68 % w/w
- Assay (% w/w) ([2]; 3 month storage, 40° C.): 11.69 % w/w
- Assay (% w/w) ([2]; 3 month storage, T/C): 11.71 % w/w
- Assay (% w/w) ([2]; 3 month storage, −10° C.): 11.71 % w/w
- Assay (% w/w) ([2]; 6 month storage, 25° C.): 11.36 % w/w
- Assay (% w/w) ([2]; 9 month storage, 25° C.): 11.56 % w/w
- Assay (% w/w) ([2]; 12 month storage, 25° C.): 11.63 % w/w
- Assay (% w/w) ([2]; F/T Sample): 11.61 % w/w
- Assay (% w/w) ([2]; initial): 11.60 % w/w
